The record followed here is PubChem BioAssay (NCI).

Among the test systems are OVCAR-4 ovarian; SK-OV-3 ovarian; NCI-H460 lung; SF-295 CNS; CCRF-CEM leukemia; U251 CNS; EKVX NSCLC; SNB-75 CNS; HCT-15 colon; UACC-62 melanoma.
What all share (assay): inhibition of tumour cell growth, NCI panel, 48 h

Several values for one entry are separate records, joined by “and”; a condition that tells them apart may be missing. Identical values can stand only once.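 Method: 48-hour compound exposure of cells in 96-well plates, five concentrations, linear interpolation of endpoints. GI50 is the concentration that inhibits growth by half. TGI: total growth inhibition.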

On to `COc1ccc(-n2cc(-c3cc(OC)c(OC)c(OC)c3)nc2SCc2ccccc2)cc1OC`, for which the GI50 in the assay on OVCAR-4 ovarian was over 81.4 µM; in the assay with SK-OV-3 ovarian, over 100 µM; with NCI-H460 lung it was over 100 µM; in the assay with SF-295 CNS, over 100 µM; with CCRF-CEM leukemia it was over 100 µM; with U251 CNS, 50 µM. For the same compound, the GI50 was 57.9 µM in the assay on EKVX NSCLC, 34.4 µM in the assay with SNB-75 CNS, 33.3 µM with HCT-15 colon and 44.9 µM in the assay with UACC-62 melanoma. Further, the TGI in the assay with OVCAR-4 ovarian, in the assay on SK-OV-3 ovarian, in the assay on NCI-H460 lung, with SF-295 CNS, in the assay with CCRF-CEM leukemia and in the assay on U251 CNS was over 100 µM in each case. Also, the TGI with EKVX NSCLC, in the assay with SNB-75 CNS, in the assay on HCT-15 colon and with UACC-62 melanoma was over 100 µM in each case.
`S=c1ssc(Oc2ccccc2)c1Cl`: the GI50 is 34 µM with OVCAR-4 ovarian; 39.4 µM with SK-OV-3 ovarian; 16.9 µM in the assay on NCI-H460 lung; 15.1 µM in the assay with SF-295 CNS; 1.02 µM with CCRF-CEM leukemia; 7.06 µM in the assay on U251 CNS. Further, the GI50 in the assay with EKVX NSCLC is 18.4 µM; with SNB-75 CNS it was 18 µM; in the assay with HCT-15 colon, 7.76 µM; in the assay on UACC-62 melanoma, 14 µM. In addition, the TGI was over 100 µM in the assay with OVCAR-4 ovarian; over 100 µM in the assay on SK-OV-3 ovarian; 33.1 µM in the assay on NCI-H460 lung; 28.3 µM with SF-295 CNS; 5.84 µM in the assay on CCRF-CEM leukemia; 26.4 µM in the assay on U251 CNS. Also, the TGI with EKVX NSCLC was determined as 38.9 µM; in the assay on SNB-75 CNS it was 45 µM; in the assay on HCT-15 colon it was 22.6 µM; in the assay on UACC-62 melanoma it was 26.9 µM.
With `Oc1ccccc1C=Nc1nc(SCc2ccccc2)nc2[nH]ncc12`, the GI50 with OVCAR-4 ovarian was over 100 µM; in the assay with SK-OV-3 ovarian it was over 100 µM; with NCI-H460 lung, 36.9 µM; with SF-295 CNS it was 52 µM; in the assay on CCRF-CEM leukemia, 45.7 µM; in the assay on U251 CNS, 46.4 µM. In addition, the GI50 with EKVX NSCLC was over 100 µM; in the assay on SNB-75 CNS it was over 100 µM; in the assay with HCT-15 colon, over 100 µM; in the assay with UACC-62 melanoma, 28.1 µM. For the same compound, the TGI in the assay with OVCAR-4 ovarian, in the assay with SK-OV-3 ovarian, in the assay on NCI-H460 lung, in the assay on SF-295 CNS, with CCRF-CEM leukemia and with U251 CNS was over 100 µM each time. Also, the TGI in the assay with EKVX NSCLC is over 100 µM; with SNB-75 CNS, over 100 µM; in the assay with HCT-15 colon, over 100 µM; in the assay on UACC-62 melanoma, 73.7 µM.
Turning to `Cc1ccc(NC(=O)C(=O)CC(=O)c2c(C)n([O-])c3ccccc3[n+]2=O)cc1`, the TGI in the assay with OVCAR-4 ovarian is 96.3 µM; in the assay with SK-OV-3 ovarian, over 100 µM; with NCI-H460 lung, 77.4 µM; with SF-295 CNS, over 100 µM; with CCRF-CEM leukemia, 49 µM; in the assay on U251 CNS, 92.3 µM. The TGI in the assay on EKVX NSCLC is 40.9 µM; in the assay on SNB-75 CNS it was 58 µM; with HCT-15 colon, 89.4 µM; in the assay on UACC-62 melanoma, 32.6 µM.
Regarding `COc1cc2c(cc1OCCCCCOc1ccc(-n3c(C)nc4ccccc4c3=O)cc1)N=C[C@@H]1CCCN1C2=O`, the GI50 in the assay with OVCAR-4 ovarian is 0.515 µM; with SK-OV-3 ovarian it was 0.41 µM; with NCI-H460 lung, 0.248 µM; in the assay on SF-295 CNS, 0.391 µM; in the assay on CCRF-CEM leukemia, 0.21 µM; with U251 CNS it was 0.231 µM. The GI50 in the assay with EKVX NSCLC was 0.778 µM; in the assay with SNB-75 CNS, 0.408 µM; in the assay on HCT-15 colon it was 1.13 µM; in the assay with UACC-62 melanoma, 0.171 µM. Also, the TGI in the assay on OVCAR-4 ovarian was found to be 13.2 µM; with SK-OV-3 ovarian it was 1.89 µM; in the assay on NCI-H460 lung, 0.691 µM; in the assay with SF-295 CNS, 1.83 µM; with CCRF-CEM leukemia, 0.588 µM; in the assay with U251 CNS, 0.759 µM. In addition, the TGI with EKVX NSCLC was 4.77 µM; in the assay with SNB-75 CNS, 3.43 µM; with HCT-15 colon, 3.9 µM; in the assay with UACC-62 melanoma, 0.336 µM.
Turning to `c1ccc2cc3[s+]snc3cc2c1`, the TGI with OVCAR-4 ovarian, in the assay with SK-OV-3 ovarian, in the assay on NCI-H460 lung, in the assay with SF-295 CNS, in the assay with CCRF-CEM leukemia and in the assay on U251 CNS was over 100 µM in each case. The TGI in the assay on EKVX NSCLC, in the assay on SNB-75 CNS, with HCT-15 colon and in the assay with UACC-62 melanoma was over 100 µM each time.
As to `CC1(O)CC(c2nc(-c3ccc4ccc(-c5ccccc5)nc4c3)c3c(N)nccn23)C1` (stereo not given), the GI50 is 7.5 µM and > 10 µM in the assay on OVCAR-4 ovarian; 10.4 µM and 9.84 µM in the assay on SK-OV-3 ovarian; 2.7 µM and 1.5 µM in the assay with NCI-H460 lung; 12.5 µM and > 10 µM with SF-295 CNS; 9.89 µM and > 10 µM in the assay on CCRF-CEM leukemia; 13.4 µM and > 10 µM with U251 CNS. Moreover, the GI50 was 11.7 µM and > 10 µM in the assay on EKVX NSCLC; 4.62 µM and 5.57 µM with SNB-75 CNS; 4.52 µM and 3.68 µM in the assay with HCT-15 colon; 10.8 µM and > 10 µM in the assay with UACC-62 melanoma. Moreover, the TGI was over 95 µM with OVCAR-4 ovarian; over 100 µM in the assay on SK-OV-3 ovarian; 24.8 µM and > 10 µM with NCI-H460 lung; 48.1 µM and > 10 µM in the assay with SF-295 CNS; over 100 µM in the assay with CCRF-CEM leukemia; 36.3 µM and > 10 µM with U251 CNS. Besides, the TGI was over 100 µM in the assay with EKVX NSCLC; 43.2 µM and > 10 µM in the assay on SNB-75 CNS; over 79.6 µM in the assay with HCT-15 colon; 32.2 µM and > 10 µM in the assay with UACC-62 melanoma.
Take `C=C1C(=O)O[C@H]2[C@H]1CCC(/C=N/c1ncc(Br)cc1N)=C\CC[C@@]1(C)O[C@@H]21`: the GI50 is 2.43 µM in the assay on OVCAR-4 ovarian; 16.3 µM in the assay with SK-OV-3 ovarian; 5.81 µM in the assay on NCI-H460 lung; 10.4 µM in the assay on SF-295 CNS; 0.429 µM with CCRF-CEM leukemia; 5.06 µM in the assay on U251 CNS. Besides, the GI50 with EKVX NSCLC is 2.36 µM; in the assay on SNB-75 CNS, 3.38 µM; in the assay with HCT-15 colon it was 1.49 µM; in the assay on UACC-62 melanoma it was 1.87 µM. Moreover, the TGI with OVCAR-4 ovarian was 11.6 µM; in the assay with SK-OV-3 ovarian, 95.2 µM; with NCI-H460 lung, 22.3 µM; with SF-295 CNS it was 24.3 µM; with CCRF-CEM leukemia, 10.8 µM; with U251 CNS, 18.1 µM. Further, the TGI in the assay with EKVX NSCLC stood at 11.8 µM; in the assay with SNB-75 CNS, 18 µM; with HCT-15 colon it was 4.01 µM; with UACC-62 melanoma, 4.22 µM.
In the case of `CCOC(=O)/C(=C\c1cccs1)P(=O)(OCC)OCC`, the TGI with OVCAR-4 ovarian was 37.5 µM; in the assay with SK-OV-3 ovarian, over 100 µM; in the assay on NCI-H460 lung, 46.9 µM; in the assay on SF-295 CNS it was over 100 µM; with CCRF-CEM leukemia, over 100 µM; with U251 CNS, 41.9 µM. Moreover, the TGI in the assay with EKVX NSCLC was 60.3 µM; with SNB-75 CNS, over 100 µM; with HCT-15 colon it was 32.4 µM; in the assay with UACC-62 melanoma, 32.8 µM.
Regarding `Cc1cc(NCc2cc(Nc3ccnc4cc(Cl)ccc34)ccc2F)nc(N2CCN(C)CC2)n1`, the GI50 with OVCAR-4 ovarian is 1.56 µM; with SK-OV-3 ovarian, 3.31 µM; in the assay with NCI-H460 lung, 1.5 µM; in the assay on SF-295 CNS it was 1.09 µM; in the assay on CCRF-CEM leukemia, 1.12 µM; in the assay on U251 CNS, 1.78 µM. In addition, the GI50 in the assay with EKVX NSCLC is 2.91 µM; with SNB-75 CNS it was 1.21 µM; in the assay with HCT-15 colon, 1.34 µM; in the assay with UACC-62 melanoma, 1.91 µM. In addition, the TGI came to 8.57 µM in the assay on OVCAR-4 ovarian; 9.88 µM in the assay with SK-OV-3 ovarian; 3.31 µM with NCI-H460 lung; 2.55 µM with SF-295 CNS; 7.6 µM in the assay with CCRF-CEM leukemia; 4.46 µM in the assay on U251 CNS. For the same compound, the TGI in the assay with EKVX NSCLC stood at 12.6 µM; in the assay on SNB-75 CNS it was 3.16 µM; in the assay on HCT-15 colon it was 3.45 µM; with UACC-62 melanoma, 3.81 µM.
On to `COc1ccccc1N1CCN(CCc2c[nH]c3cc4c(cc23)OCO4)CC1`, for which the GI50 with OVCAR-4 ovarian was 37.7 µM; with SK-OV-3 ovarian, 81.6 µM; in the assay with NCI-H460 lung, 15.5 µM; in the assay on SF-295 CNS it was 0.646 µM; in the assay on CCRF-CEM leukemia, 29.8 µM; in the assay on U251 CNS, 32.2 µM. Moreover, the GI50 in the assay with EKVX NSCLC is 16.8 µM; with SNB-75 CNS it was 25 µM; in the assay with HCT-15 colon, 29.6 µM; in the assay on UACC-62 melanoma, 32.2 µM. Besides, the TGI is over 100 µM in the assay with OVCAR-4 ovarian; over 100 µM in the assay with SK-OV-3 ovarian; over 100 µM with NCI-H460 lung; 27.7 µM with SF-295 CNS; over 100 µM in the assay on CCRF-CEM leukemia; over 100 µM in the assay with U251 CNS. Also, the TGI in the assay on EKVX NSCLC is 64.6 µM; in the assay with SNB-75 CNS, over 100 µM; in the assay with HCT-15 colon, over 100 µM; in the assay on UACC-62 melanoma, over 100 µM.
Consider `COc1ccccc1C1c2cc3c(cc2OC(O)(CO)C1C(=O)O)OCO3` (stereo not given) (tested in a mixture with another compound), for which the TGI with OVCAR-4 ovarian, in the assay with SK-OV-3 ovarian, in the assay on NCI-H460 lung, with SF-295 CNS, in the assay with CCRF-CEM leukemia and in the assay on U251 CNS was over 100 µM in each case. The TGI with EKVX NSCLC, in the assay with SNB-75 CNS, with HCT-15 colon and with UACC-62 melanoma was over 100 µM in each case.
